# Experiments:
# [1] = tested on: indomethacin-induced gastric mucosal lesions; assay: Preventive effect on NSAID-induced gastropathy; type: in vivo, Sprague Dawley male rats; details: rats, oro-gastric pretreatment (revaprazan 5, 10 mg/kg; rebamipide 30 mg/kg; omeprazole 5 mg/kg) prior to indomethacin 40 mg/kg for 12 hrs, FIG. 8
# Protocol: Six-week old specific-pathogen-free (SPF) Sprague Dawley male rats (Charles River, Tokyo, Japan) were used for experiments. The rats were fed a sterilized commercial pellet diet (Biogenomics Co., Seoul, Korea), given sterile water ad libitum, and housed in air-conditioned biohazard room with a 12-h light:12-h dark cycle. The rats were food-deprived 24 hours, and then administered with 5, 10 mg/kg revaprazan, 30 mg/kg rebamipide and 5 mg/kg omeprazole suspended in 0.5% CMC (carboxymethylcellulose) via oro-gastric tube prior to exposure to indomethacin (40 mg/kg for 12 hrs). Phosphate-buffered saline was perfused into the gastric lumen of the rats to swell the stomachs. Then, the stomachs were opened by an incision along the greater curvature, and the total area of the gastric mucosal lesions was calculated to obtain the average size of the lesions.
# [2] = tested on: rat gastric mucosal (RGM-1) cells; assay: Incidence of ethanol-induced cell death (MTT assay-2); type: cell-based; details: 50 uM pretreatment for 16 hours, then 200 mM ethanol for 16 hours, FIG. 2
# Protocol: The rat gastric mucosal (RGM-1, RIKEN cell bank, Japan) cells were seeded onto 96-well plate at 5×10^4 cells/ml and cultured in DMEM-F12 (Gibco BRL, Grand Island, N.Y., U.S.A.), supplemented with 100 units/mL penicillin, 100 ug/mL streptomycin, and 10% FBS (Fetal Bovine Serum). […] To remove DMEM-F12 media, the plate was centrifuged at 24° C., 3000 rpm for 5 minutes and washed three times with PBS (137 mM NaCl, 2.7 mM KCl, 10 mM Na2HPO4, and 2 mM KH2PO4). Then, ethanol-containing media (200 mM ethanol-containing DMEM-F12, supplemented with 100 units/mL penicillin, 100 ug/mL streptomycin, and 10% FBS) was added to the cells, and the cells were cultured at 37° C. for 16 hours. After the incubation, the culture was centrifuged at 24° C., 3000 rpm for 5 minutes to remove the culture medium and then total viable cell numbers were assessed by MTT (3-[4,5-dimethylthiazol-2-yl]-2,5-diphenyl tetrazolim bromide) assay method. 1 mg/ml of an MTT solution prepared by dissolving MTT (Amresco, Ohio, U.S.A.) in PBS (137 mM NaCl, 2.7 mM KCl, 10 mM Na2HPO4, and 2 mM KH2PO4) was added to each well (50 μl/well), followed by incubation at 37° C. for 4 hours. The supernatant was then removed by centrifugation at 24° C., 3000 rpm for 5 minutes and the formazan grains formed by the viable cells were dissolved in 99.5% dimethylsulfoxide (DMSO) (Kanto, Tokyo, Japan) (50 μl/well), and the optical intensity was measured at 540 nm using an ELISA reader (TECAN, Maennedorf, Switzerland).
# [3] = tested on: human gastric epithelial (AGS) cells infected with H. pylori (ATCC 43504); assay: Incidence of H. pylori-induced cell death (MTT assay-1); type: cell-based; details: 50 uM pretreatment for 16 hours, then 48-hour H. pylori infection, FIG. 1
# Protocol: In order to determine cytoprotective properties of revaprazan against H. pylori infection, gastric mucosal cells were pretreated with revaprazan and rebamipide prior to H. pylori infection, and the incidence of cell death was measured. Rebamipide, known to have cytoprotective properties, was used as a control drug.
# The human gastric epithelial (AGS, KCLB 21739) cells were seeded onto 96-well plate at 5×10^4 cells/ml and cultured in RPMI 1640 (Gibco BRL, Grand Island, N.Y., U.S.A.), supplemented with 100 units/mL penicillin, 100 ug/mL streptomycin, and 10% FBS (Fetal Bovine Serum). Revaprazan and rebamipide, dissolved in sterilized water, were added to AGS cells to reach a final concentration of 50 uM and the cells were incubated at 37° C. for 16 hours. To remove RPMI 1640 media, the plate was centrifuged at 24° C., 3000 rpm for 5 minutes and washed three times with PBS (137 mM NaCl, 2.7 mM KCl, 10 mM Na2HPO4, and 2 mM KH2PO4). For inoculation, H. pylori (ATCC 43504) cultures were resuspended in PBS and cocultured with AGS cells at a final concentration of 5×10^8 CFU/ml. After 48 hours of incubation at 37° C., the culture was centrifuged at 24° C., 3000 rpm for 5 minutes to remove the culture medium, i.e., RPMI 1640, and then total viable cell numbers were assessed by MTT (3-[4,5-dimethylthiazol-2-yl]-2,5-diphenyl tetrazolim bromide) assay method. 1 mg/ml of an MTT solution prepared by dissolving MTT (Amresco, Ohio, U.S.A.) in PBS (137 mM NaCl, 2.7 mM KCl, 10 mM Na2HPO4, and 2 mM KH2PO4) was added to each well (50 μl/well), followed by incubation at 37° C. for 4 hours. The supernatant was then removed by centrifugation at 24° C., 3000 rpm for 5 minutes and the formazan grains formed by the viable cells were dissolved in 99.5% dimethyl sulfoxide (DMSO) (Kanto, Tokyo, Japan) (50 μl/well), and the optical intensity was measured at 540 nm using an ELISA reader (TECAN, Maennedorf, Switzerland).
compound,measurement,setting,value
"O=C(NC(Cc1cc(=O)[nH]c2ccccc12)C(=O)O)c1ccc(Cl)cc1 (stereo not drawn) [rebamipide, reference compound]",hemorrhagic gastric mucosal lesions after pretreatment,[1],hemorrhagic lesions are observed
same,ethanol-induced gastric mucosal cytotoxicity,[2],significantly reduced
same,gastric mucosal cytotoxicity by H. pylori infection,[3],significantly reduced

# From patent publication US7776873B2, “Method for treating damage to gastric mucosa” (Yuhan Corporation, priority 2005, dated 2010)
